According to patent publication US9725460B2, “Oridonin analogs, compositions, and methods related thereto” (THE BOARD OF REGENTS OF THE UNIVERSITY OF TEXAS SYSTEM, priority 2013, dated 2017):
Values after ≈ are worked out from the molar mass of the structure shown. Where two headings read alike, the source gives them in different places.

Legend:
[1] = tested on: Panc-1; experiment: Cancer cell proliferation assay, Panc-1; format: cell-based; details: Homo sapiens, PANC-1
Experimental: (§1) In Vitro Determination of Effects of Synthesized Diterpenoids on Cancer Cell Proliferation. […] Then MTT solution was removed, and 150 μL of DMSO was added to each well. Absorbance of all wells was determined by measuring OD at 550 nm after a 10 min incubation on a 96-well GlowMaxate absorbance reader (Promega, Madison, Wis.). Each individual compound was tested in quadruplicate wells for each concentration.

[2] = tested on: MDA-MB-231; experiment: MTT cancer cell proliferation assay, MDA-MB-231; format: cell-based, human; details: Homo sapiens
Outline: (§2)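 Cells seeded at 1×10^4/well and exposed 48 h to 0.01-100 μM compound (0.01, 0.1, 1, 5, 10, 100 μM) or DMSO. MTT added for a further 4 h, formazan dissolved in DMSO and OD read at 550 nm; quadruplicate wells per concentration. MCF-7 is ER-positive; MDA-MB-231 ER-negative, triple-negative.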

[3] = tested on: breast, pancreatic, and prostate cancer cell lines; experiment: Anti-proliferation effects against cancer cell lines; format: cell-based, human; details: summary of Tables 1 and 2
Experimental: (§3) In Vitro Determination of Effects of Synthesized Diterpenoids on Cancer Cell Proliferation. Breast cancer cell lines MCF-7, MDA-MB-231, […] and MCF/ADR were seeded in 96-well plates at a density of 1×10^4 cells/well and treated with DMSO and 0.01, 0.1, 1, 5, 10, and 100 μM of individual compound for 48 h, and then 20 μL of 3-(4,5-dimethylthiazol-2-yl)-2,5-diphenyltetrazolium bromide (MTT) (5 mg/mL in PBS) was added to each well and further incubated for another 4 h. Then MTT solution was removed, and 150 μL of DMSO was added to each well. Absorbance of all wells was determined by measuring OD at 550 nm after a 10 min incubation on a 96-well GlowMaxate absorbance reader (Promega, Madison, Wis.). Each individual compound was tested in quadruplicate wells for each concentration.

[4] = tested on: AsPC1; experiment: Cancer cell proliferation assay, AsPC1; format: cell-based; details: Homo sapiens, ASPC1
Experimental: as §1

[5] = Body weight and tolerability in xenograft mice; details: 5.0 mg/kg ip
Description: (§4) FIG. 14. […] Values are mean±SE of three independent experiments.
(§5) In pilot in vivo studies, this compound was further evaluated for its anticancer activity in suppression of tumor growth in the triple-negative breast cancer MDA-MB-231 xenograft model.

[6] = tested on: MCF-7; experiment: MTT cancer cell proliferation assay, MCF-7; format: cell-based, human; details: Homo sapiens
Outline: as §2

[7] = tested on: xenograft tumors (breast cancer MDA-MB-231); experiment: MDA-MB-231 xenograft tumor growth in mice; format: in vivo; details: 5.0 mg/kg ip; triple-negative MDA-MB-231 xenograft; p<0.0001
Description: as §4, §5

[8] = tested on: DU145; experiment: Cancer cell proliferation assay, DU145; format: cell-based; details: Homo sapiens, DU-145
[9] = tested on: MDA-MB-231 cells; experiment: Colony formation in MDA-MB-231 cells; format: cell-based
[10] = tested on: MCF-7/ADR; experiment: MTT growth inhibition, drug-resistant MCF-7/ADR; format: cell-based; details: Homo sapiens, NCI/ADR-RES, 24 h, Table 1d; drug-resistant breast cancer cells; mean ± SE of three experiments
[11] = tested on: HMEC cells; experiment: Toxicity in HMEC cells; format: cell-based
[12] = Aqueous solubility; format: physicochemical; details: water; compound as such; read-out: Aqueous solubility
[13] = tested on: MDA-MB-468; experiment: MTT cancer cell proliferation assay, MDA-MB-468; format: cell-based, human; details: Homo sapiens, MDA-MB-468, 48 h, Table 3; pyran-fused diterpenoids; MTT 48 h; mean ± SE of three experiments
Experimental: as §3
(§6) The growth inhibitory effects of the newly generated pyran-fused diterpenoids were evaluated in four breast cancer cell lines MCF-7 (ER-positive), MDAMB-231 (ER-negative and triple-negative), MDA-MB-468 (ER-negative and triple-negative) as well as MCF-7/ADR (adriamycin-resistant) using MTT assays as described in the Experimental Section. The capability of these new molecules to inhibit the growth of cancer cells was summarized in Table 3 and compared with that of adriamycin and 1 spontaneously.

[14] = tested on: leukemia; details: 15 mg/kg; Zhou et al., Blood 2007; cited from earlier work
[15] = tested on: MCF-7/ADR; experiment: MTT growth inhibition, drug-resistant MCF-7/ADR; format: cell-based, human; details: Homo sapiens, NCI/ADR-RES, 48 h, Table 3; adriamycin-resistant; MTT 48 h; mean ± SE of three experiments
Experimental: as §3, §6

[16] = tested on: acute myeloid leukemic cells; details: Zhou et al., Blood 2007; read-out: IC50, induction of mitochondrial apoptosis; cited from earlier work
[17] = Table 1a, pancreatic cancer, read-out: IC50 (μM) Panc-1
[18] = Table 2b, mean of at least three experiments, read-out: Effect on proliferation Panc-1 (IC50)
[19] = MDA-MB-231, Table 1a, breast cancer, read-out: IC50 (μM) MDA-MB-231
[20] = MDA-MB-231, Table 2b, mean of at least three experiments, read-out: Effect on proliferation MDA-MB-231 (ER negative) (IC50)
[21] = Table 1a, pancreatic cancer, read-out: IC50 (μM) AsPC1
[22] = Table 2b, mean of at least three experiments, read-out: Effect on proliferation AsPC1 (IC50)
[23] = MCF7, Table 1a, breast cancer, read-out: IC50 (μM) MCF-7
[24] = MCF7, Table 2b, mean of at least three experiments, read-out: Effect on proliferation MCF-7 (ER positive) (IC50)
[25] = Table 1a, prostate cancer, read-out: IC50 (μM) DU145
[26] = Table 2b, mean of at least three experiments, read-out: Effect on proliferation DU145 (IC50)
[27] = Table 2a, A-ring modified analogues, read-out: IC50 (μM) Panc-1
[28] = MDA-MB-231, Table 1c, dienone analogues, mean ± SE of three experiments, read-out: Antiproliferative effect MDA-MB-231 (IC50)
[29] = MDA-MB-231, Table 2a, A-ring modified analogues, read-out: IC50 (μM) MDA-MB-231
[30] = Table 2a, A-ring modified analogues, read-out: IC50 (μM) AsPC1
[31] = MCF7, Table 1c, dienone analogues, mean ± SE of three experiments, read-out: Antiproliferative effect MCF-7 (IC50)
[32] = MCF7, Table 2a, A-ring modified analogues, read-out: IC50 (μM) MCF-7

Row | SMILES | IC50 [1, 17] | IC50 [1, 18] | IC50 [2, 19] | IC50 [2, 20] | IC50 values, anti-proliferation effects against cancer cell lines [3] | IC50 [4, 21] | IC50 [4, 22] | Loss of body weight [5] | Tolerability during the experiments [5] | IC50 [6, 23] | IC50 [6, 24] | Inhibition of xenograft tumor growth compared to oridonin at the same dose [7] | IC50 [8, 25] | IC50 [1, 27] | IC50 [2, 28] | IC50 [2, 29] | IC50 [10] | IC50 [4, 30] | IC50 [6, 31] | IC50 [6, 32] | also measured
1 | C=CCNc1nc2c(s1)CC(C)(C)[C@H]1[C@H](O)[C@@]3(O)OC[C@@]21[C@@H]1CC[C@H]2C(=C)C(=O)[C@]13[C@@H]2O [CYD-6-18, (5aR,6S,7S,7aR,10S,12aS,12bR,15R)-2-(allylamino)-6,7,15-trihydroxy-5,5-dimethyl-9-methylene-5,5a,6,7,10,11,12,12a-octahydro-4H-7,12b-(epoxymethano)-7a,10-methanocyclohepta[7,8]naphtho[1,2-d]thiazol-8(9H)-one] | 1.1 µM | 1.1 µM | 0.18 µM | 0.2 µM | low micromolar to nanomolar | 1.05 µM | 1.1 µM | no significant loss of body weight | tolerated | 0.18 µM | 0.2 µM | much better effect in inhibiting tumor growth | 1.18 µM |  |  |  |  |  |  |  | IC50 [8, 26]: 1.2 µM
2 | C=C1C(=O)[C@@]23[C@@H]4OC(C)(C)OC25OC[C@]2(C=CC(=O)C(C)(C)[C@H]2[C@@H]5O)[C@@H]3CC[C@@H]14 [CYD-6-86, (3S,3aR,3a^1R,6aR,7S,7aS,11aR,11bS)-7-hydroxy-5,5,8,8-tetramethyl-15-methylene-3,3a,7,7a,8,11b-hexahydro-1H-6a,11a-(epoxymethano)-3,3a^1-ethanophenanthro[1,10-de][1,3]dioxine-9,14(2H)-dione] |  |  |  |  | low micromolar to nanomolar |  |  | no significant loss of body weight | well tolerated |  |  | much more efficacious in suppressing xenograft tumor growth |  | 6.49 µM | 5.6 ± 1.06 µM | 4.39 µM | 6.02 ± 1.28 µM | 0.81 µM | 0.98 ± 0.19 µM | 0.86 µM | Antiproliferative and colony formation inhibitory effects in MDA-MB-231 cells [9]: potent antiproliferative and colony formation inhibitory effects; Toxicity in HMEC cells [11]: lower toxicity
3 | C=C1C(=O)[C@]23[C@H](O)[C@H]1CC[C@H]2[C@@]12CO[C@]3(O)[C@@H](O)[C@@H]1C(C)(C)C=CC2=O [CYD-6-58, (4aR,5S,6S,6aR,9S,11aS,11bS,14R)-5,6,14-trihydroxy-4,4-dimethyl-8-methylene-4,4a,5,6,9,10,11,11a-octahydro-1H-6,11b-(epoxymethano)-6a,9-methanocyclohepta[a]naphthalene-1,7(8H)-dione] |  |  |  |  |  |  |  |  |  |  |  |  |  | > 10 µM | 2.23 ± 0.68 µM | 3.56 µM | 5.82 ± 2.12 µM | 2.99 µM | 1.31 ± 0.25 µM | 0.95 µM | 
4 | C=C1C(=O)[C@]23[C@H](O)[C@H]1CC[C@H]2[C@@]12COC3(O)[C@@H](O)[C@@H]1C(C)(C)CC[C@@H]2O [Oridonin] | 13.4 µM | 15.6 µM | 29.4 µM | 29.4 µM |  | 34.5 µM | 19.3 µM |  |  | 6.64 µM | 6.6 µM |  | 14.2 µM |  | 28 ± 1.4 µM | 29.4 µM | > 30 µM |  | 4.36 ± 1.41 µM | 6.64 µM | solubility [12]: 1290 µg/mL (≈ 3.54 mM); IC50 [13]: 5.33 ± 1.36 µM; IC50 ([2]; MDA-MB-231, 48 h, Table 3, pyran-fused diterpenoids, MTT 48 h, mean ± SE of three experiments, read-out: IC50 (μM) MDA-MB-231): 28 ± 1.4 µM; IC50 ([2]; MDA-MB-231, Table 1b, triazole substituted analogues, mean of three experiments, read-out: IC50 (μM) MDA-MB-231): 29.4 µM; Anti-leukemia activities in murine models [14]: substantial anti-leukemia activities with a low side-effect; IC50 [15]: 34.8 ± 2.54 µM; IC50 ([6]; MCF7, 48 h, Table 3, pyran-fused diterpenoids, MTT 48 h, mean ± SE of three experiments, read-out: IC50 (μM) MCF-7): 4.36 ± 1.41 µM; IC50 ([6]; MCF7, Table 1b, triazole substituted analogues, mean of three experiments, read-out: IC50 (μM) MCF-7): 6.6 µM; IC50 [16]: 2 µM; IC50 [8, 26]: 14.2 µM
5 | C=C1C(=O)[C@@]23[C@@H]4OC(C)(C)OC25OC[C@]2(C(=O)C(C=O)=CC(C)(C)[C@H]2[C@@H]5O)[C@@H]3CC[C@@H]14 [CYD-6-92, (3S,3aR,3a^1R,6aR,7S,7aR,11aS,11bS)-7-hydroxy-5,5,8,8-tetramethyl-15-methylene-11,14-dioxo-2,3,3a,7,7a,8,11,11b-octahydro-1H-6a,11a-(epoxymethano)-3,3a^1-ethanophenanthro[1,10-de][1,3]dioxine-10-carbaldehyde] |  |  |  |  | low micromolar to nanomolar |  |  |  |  |  |  |  |  | 5.35 µM | 3.46 ± 1.33 µM | 6.09 µM | 6.55 ± 0.96 µM | 3.57 µM | 1.28 ± 0.47 µM | 1.46 µM | 
6 | C=C1C(=O)[C@@]23[C@@H]4OC(C)(C)OC25OC[C@]2(C(=O)C=CC(C)(C)[C@H]2[C@@H]5O)[C@@H]3CC[C@@H]14 [CYD-6-25, (3S,3aR,3a^1R,6aR,7S,7aR,11aS,11bS)-7-hydroxy-5,5,8,8-tetramethyl-15-methylene-3,3a,7,7a,8,11b-hexahydro-1H-6a,11a-(epoxymethano)-3,3a^1-ethanophenanthro[1,10-de][1,3]dioxine-11,14(2H)-dione] |  |  |  |  |  |  |  |  |  |  |  |  |  | 7.93 µM | 3.49 ± 1.21 µM | 5.6 µM | 5.03 ± 1.91 µM | 8.82 µM | 0.56 ± 0.31 µM | 1.1 µM | 
